Results taken from article PMC5612656, “In vitro and in vivo effects of 2,4 diaminoquinazoline inhibitors of the decapping scavenger enzyme DcpS: Context-specific modulation of SMN transcript levels” (PLoS ONE, 2017).

Test system: spinal cord transcriptome
Assay: RNA-Seq of spinal cord tissue from 2B/- and 2B/+ mice
Assay type: in vivo, mouse
Conditions: 2B-Veh vs 2B-RG3039

## Nc1nc(N)c2c(OCC3CCN(Cc4c(Cl)cccc4Cl)CC3)cccc2n1 [RG3039]
  log2(fold-change) Slc16a3: -0.7903
  log2(fold-change) Slc16a9: -0.6931
  log2(fold-change) Slc24a4: -0.7011
  log2(fold-change) Slc25a34: -1.809
  log2(fold-change) Slc38a5: 1.057
  log2(fold-change) Slc43a2: -0.4622
  log2(fold-change) Smim3: -1.398
  log2(fold-change) Sox7: 0.9813
  log2(fold-change) Sspo: -0.7538
  log2(fold-change) Steap3: 0.5769
  log2(fold-change) Sult1a1: -1.637
  log2(fold-change) T2: -0.674
  log2(fold-change) Thbd: 0.6475
  log2(fold-change) Tjap1: -0.5932
  log2(fold-change) Tmem52: -2.209
  log2(fold-change) Tmem82: -2.075
  log2(fold-change) Tnc: 1.175
  log2(fold-change) Tnfrsf11b: 0.7466
  log2(fold-change) Tnfsf10: 1.316
  log2(fold-change) Top2a: 0.5734
  log2(fold-change) Trim17: -0.4978
  log2(fold-change) Trim63: -1.544
  log2(fold-change) Txnip: -1.514
  log2(fold-change) Ube2c: 0.4464
  log2(fold-change) Uhrf1: 0.8234
  log2(fold-change) Vegfc: 0.6909
  log2(fold-change) Wfdc18: -1.041
  log2(fold-change) Wnt7a: 1.48
  log2(fold-change) Zbtb16: -1.136
  log2(fold-change) Zfand4: -0.6603
Gene 1110032A03Rik
  log2(fold-change): -0.2821
Gene Acsbg1
  log2(fold-change): -0.2673
Gene Adam15
  log2(fold-change): -0.3484
Gene Adi1
  log2(fold-change): -0.4121
Gene Adra1b
  log2(fold-change): 0.2729
Gene Aff1
  log2(fold-change): -0.2665
Gene Ak3
  log2(fold-change): -0.3763
Gene Aldh1l1
  log2(fold-change): -0.3854
Gene Aldoc
  log2(fold-change): -0.3499
Gene Amz1
  log2(fold-change): 0.2752
Gene Ap5z1
  log2(fold-change): -0.356
Gene Aqp11
  log2(fold-change): -0.2575
Gene Arsk
  log2(fold-change): -0.2986
Gene B3gnt9
  log2(fold-change): -0.2654
Gene Bahd1
  log2(fold-change): 0.2771
Gene Boc
  log2(fold-change): -0.2865
Gene Calr
  log2(fold-change): 0.1683
Gene Ccdc41os1
  log2(fold-change): -0.2491
Gene Ccdc117
  log2(fold-change): 0.2458
Gene Ccnyl1
  log2(fold-change): 0.3378
Gene Cdc25a
  log2(fold-change): 0.2456
Gene Clmp
  log2(fold-change): 0.2336
Gene Cntfr
  log2(fold-change): -0.3422
Gene Col9a3
  log2(fold-change): 0.1971
Gene Cpt1c
  log2(fold-change): -0.278
Gene Crabp1
  log2(fold-change): 0.2782
Gene Cryz
  log2(fold-change): -0.1892
Gene Daam2
  log2(fold-change): -0.2024
Gene Darc
  log2(fold-change): 0.1786
Gene Decr1
  log2(fold-change): -0.3016
Gene Dnm2
  log2(fold-change): -0.2166
Gene Efnb3
  log2(fold-change): -0.3581
Gene Elmo2
  log2(fold-change): 0.364
Gene Eltd1
  log2(fold-change): -0.2627
Gene Fkbp10
  log2(fold-change): 0.3165
Gene Fmnl3
  log2(fold-change): 0.3298
Gene Foxo3
  log2(fold-change): -0.2832
Gene Gpt2
  log2(fold-change): -0.2642
Gene Gstt1
  log2(fold-change): -0.358
Gene Hapln2
  log2(fold-change): -0.2887
Gene Hmgcr
  log2(fold-change): 0.3374
Gene Hopx
  log2(fold-change): 0.2486
Gene Hsdl2
  log2(fold-change): -0.1941
Gene Itfg3
  log2(fold-change): -0.4076
Gene Ivd
  log2(fold-change): -0.3584
Gene Kctd3
  log2(fold-change): -0.3771
Gene Kctd15
  log2(fold-change): 0.2608
Gene Kpna2
  log2(fold-change): 0.269
Gene Lpcat1
  log2(fold-change): 0.2395
Gene Lrrc1
  log2(fold-change): -0.4303
Gene Lxn
  log2(fold-change): 0.285
Gene Maged2
  log2(fold-change): 0.2097
Gene Megf9
  log2(fold-change): -0.283
Gene Megf11
  log2(fold-change): 0.3115
Gene Mmp15
  log2(fold-change): 0.2397
Gene Msi1
  log2(fold-change): 0.3899
Gene Mterfd3
  log2(fold-change): -0.3526
Gene Ngef
  log2(fold-change): 0.3246
Gene Nid1
  log2(fold-change): 0.3048
Gene Npl
  log2(fold-change): 0.2963
Gene Nr2f1
  log2(fold-change): 0.3426
Gene Nrbp2
  log2(fold-change): -0.2827
Gene Nrep
  log2(fold-change): 0.3402
